Assay results published in patent US9926282B2, “Phthalazinones and isoquinolinones as rock inhibitors” (BRISTOL-MYERS SQUIBB COMPANY, priority 2013, dated 2018).

Legend:
ROCK1 = ROCK1 (Homo sapiens (Human), UniProt Q13464); test: ROCK assay (LABCHIP peptide phosphorylation), ROCK1; format: biochemical; conditions: 5 μM ATP, 1.5 μM peptide substrate; read-out: ROCK1 IC50
ROCK2 = ROCK2 (Homo sapiens (Human), UniProt O75116); test: ROCK assay (LABCHIP peptide phosphorylation), ROCK2; format: biochemical; conditions: 5 μM ATP, 1.5 μM peptide substrate
ROCK2, sequence (O75116 whole entry, species assumed): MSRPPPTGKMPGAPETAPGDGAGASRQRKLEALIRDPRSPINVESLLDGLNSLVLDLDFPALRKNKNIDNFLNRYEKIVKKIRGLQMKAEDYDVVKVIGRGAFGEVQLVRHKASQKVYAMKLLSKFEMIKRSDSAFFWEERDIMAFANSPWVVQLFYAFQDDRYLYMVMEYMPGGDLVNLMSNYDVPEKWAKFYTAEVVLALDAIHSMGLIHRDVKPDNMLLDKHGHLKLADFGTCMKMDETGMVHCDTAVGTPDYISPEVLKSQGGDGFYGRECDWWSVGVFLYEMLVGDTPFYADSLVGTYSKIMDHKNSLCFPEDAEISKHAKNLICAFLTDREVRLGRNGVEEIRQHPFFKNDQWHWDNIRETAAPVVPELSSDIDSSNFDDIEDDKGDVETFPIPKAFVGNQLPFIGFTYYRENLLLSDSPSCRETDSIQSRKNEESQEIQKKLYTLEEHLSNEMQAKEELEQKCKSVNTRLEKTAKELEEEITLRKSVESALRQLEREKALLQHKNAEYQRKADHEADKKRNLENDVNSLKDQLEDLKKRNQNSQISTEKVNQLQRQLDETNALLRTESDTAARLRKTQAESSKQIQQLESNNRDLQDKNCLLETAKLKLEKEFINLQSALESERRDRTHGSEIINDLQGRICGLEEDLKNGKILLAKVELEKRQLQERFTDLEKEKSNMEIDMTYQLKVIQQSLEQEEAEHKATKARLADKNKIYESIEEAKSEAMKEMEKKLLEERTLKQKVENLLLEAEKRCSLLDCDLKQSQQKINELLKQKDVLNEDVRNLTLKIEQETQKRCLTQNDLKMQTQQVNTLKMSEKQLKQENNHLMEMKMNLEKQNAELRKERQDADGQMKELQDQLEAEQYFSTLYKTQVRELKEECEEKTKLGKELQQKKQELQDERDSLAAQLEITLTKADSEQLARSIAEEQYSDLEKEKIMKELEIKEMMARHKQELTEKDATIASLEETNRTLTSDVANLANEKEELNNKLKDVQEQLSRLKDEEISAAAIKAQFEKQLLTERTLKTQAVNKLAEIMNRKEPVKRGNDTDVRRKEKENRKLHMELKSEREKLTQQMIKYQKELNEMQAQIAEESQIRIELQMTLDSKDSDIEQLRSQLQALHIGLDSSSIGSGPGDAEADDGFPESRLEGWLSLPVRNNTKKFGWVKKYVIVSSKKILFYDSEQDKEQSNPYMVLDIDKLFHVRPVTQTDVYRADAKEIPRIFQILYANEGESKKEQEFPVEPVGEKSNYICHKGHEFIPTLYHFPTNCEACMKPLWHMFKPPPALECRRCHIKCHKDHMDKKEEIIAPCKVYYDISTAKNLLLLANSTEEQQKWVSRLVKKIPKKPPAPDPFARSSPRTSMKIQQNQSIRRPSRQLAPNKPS

ROCK1, sequence (Q13464 whole entry, species assumed): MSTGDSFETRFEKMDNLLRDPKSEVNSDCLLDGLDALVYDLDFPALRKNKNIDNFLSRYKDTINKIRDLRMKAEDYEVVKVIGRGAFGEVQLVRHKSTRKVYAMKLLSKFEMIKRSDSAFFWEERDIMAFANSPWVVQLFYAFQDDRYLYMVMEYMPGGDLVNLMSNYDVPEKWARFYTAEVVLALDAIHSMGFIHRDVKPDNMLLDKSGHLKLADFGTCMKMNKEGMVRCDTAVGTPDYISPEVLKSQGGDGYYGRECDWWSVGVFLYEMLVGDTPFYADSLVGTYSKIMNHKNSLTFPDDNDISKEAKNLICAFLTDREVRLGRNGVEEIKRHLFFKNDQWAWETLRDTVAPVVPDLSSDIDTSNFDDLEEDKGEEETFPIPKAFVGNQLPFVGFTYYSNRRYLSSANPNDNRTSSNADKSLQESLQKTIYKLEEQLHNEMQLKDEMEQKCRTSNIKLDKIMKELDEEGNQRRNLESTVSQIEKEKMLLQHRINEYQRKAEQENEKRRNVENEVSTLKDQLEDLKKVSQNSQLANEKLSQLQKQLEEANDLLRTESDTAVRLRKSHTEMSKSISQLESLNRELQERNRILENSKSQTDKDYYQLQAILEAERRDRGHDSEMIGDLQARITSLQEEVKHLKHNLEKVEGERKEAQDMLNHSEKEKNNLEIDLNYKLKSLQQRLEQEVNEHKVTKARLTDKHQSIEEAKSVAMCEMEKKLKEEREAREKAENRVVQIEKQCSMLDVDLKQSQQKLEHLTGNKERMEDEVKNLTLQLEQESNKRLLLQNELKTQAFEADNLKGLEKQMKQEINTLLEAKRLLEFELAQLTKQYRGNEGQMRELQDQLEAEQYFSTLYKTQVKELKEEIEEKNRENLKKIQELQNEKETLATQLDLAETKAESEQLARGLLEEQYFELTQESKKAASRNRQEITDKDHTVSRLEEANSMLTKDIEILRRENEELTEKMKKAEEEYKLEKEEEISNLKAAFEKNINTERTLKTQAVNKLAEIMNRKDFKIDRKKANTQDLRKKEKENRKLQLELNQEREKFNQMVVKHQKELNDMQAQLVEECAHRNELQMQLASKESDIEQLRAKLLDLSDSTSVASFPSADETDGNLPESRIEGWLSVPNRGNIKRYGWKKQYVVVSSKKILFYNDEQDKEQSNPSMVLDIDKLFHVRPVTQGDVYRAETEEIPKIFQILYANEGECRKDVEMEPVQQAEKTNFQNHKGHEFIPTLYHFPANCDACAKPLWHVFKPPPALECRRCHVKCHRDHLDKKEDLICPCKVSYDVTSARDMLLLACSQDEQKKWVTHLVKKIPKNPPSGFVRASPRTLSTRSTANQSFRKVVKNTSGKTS

Work on CC(C)Oc1ccc2cc(C(=O)Nc3ccc(-c4n[nH]c(=O)c5ccccc45)cc3)[nH]c2c1 [Example 128, N-[4-(4-oxo-3,4-dihydrophthalazin-1-yl)phenyl]-6-(propan-2-yloxy)-1H-indole-2-carboxamide] yielded an IC50 (ROCK1) of 0.0001 to 0.1 µM and an IC50 (ROCK2) of 0.0001 to 0.1 µM.
Compound COc1cc(NC(=O)c2nn(CC(C)(C)O)c3ccccc23)ccc1-c1n[nH]c(=O)c2ccccc12 [Example 345, 1-(2-Hydroxy-2-methylpropyl)-N-(3-methoxy-4-(4-oxo-3,4-dihydrophthalazin-1-yl)phenyl)-1H-indazole-3-carboxamide] has an IC50 (ROCK1) of 0.101 to 1 µM and an IC50 (ROCK2) of 0.0001 to 0.1 µM.
CCn1ccc(C(=O)Nc2ccc(-c3n[nH]c(=O)c4ccccc34)cc2)n1 [Example 204, 1-ethyl-N-[4-(4-oxo-3,4-dihydrophthalazin-1-yl)phenyl]-1H-pyrazole-3-carboxamide] gave an IC50 (ROCK1) of 0.101 to 1 µM and an IC50 (ROCK2) of 0.0001 to 0.1 µM.
Compound COC(=O)CCn1nc(C(=O)Nc2ccc(-c3n[nH]c(=O)c4ccccc34)cc2)c2ccccc21 [Example 332, Methyl 3-(3-((4-(4-oxo-3,4-dihydrophthalazin-1-yl)phenyl)carbamoyl)-1H-indazol-1-yl)propanoate] has an IC50 (ROCK1) of 0.0001 to 0.1 µM and an IC50 (ROCK2) of 0.0001 to 0.1 µM.
In the case of O=C(Nc1ccc(-c2n[nH]c(=O)c3ccccc23)cc1)c1onc2ccccc12 [Example 93, N-[4-(4-oxo-3,4-dihydrophthalazin-1-yl)phenyl]-2,1-benzoxazole-3-carboxamide], the IC50 (ROCK1) is reported as 0.0001 to 0.1 µM and the IC50 (ROCK2) is reported as 0.0001 to 0.1 µM.
Work on CCCc1c(C(=O)Nc2ccc(-c3n[nH]c(=O)c4ccccc34)cc2)nnn1-c1ccccc1 [Example 231, N-[4-(4-oxo-3,4-dihydrophthalazin-1-yl)phenyl]-1-phenyl-5-propyl-1H-1,2,3-triazole-4-carboxamide] yielded an IC50 (ROCK1) of 0.101 to 1 µM and an IC50 (ROCK2) of 0.0001 to 0.1 µM.
Compound CC(C)(O)Cn1nc(C(=O)Nc2ccc(-c3n[nH]c(=O)c4ccccc34)c(CO)c2)c2ccccc21 [Example 360, 1-(2-Hydroxy-2-methylpropyl)-N-(3-(hydroxymethyl)-4-(4-oxo-3,4-dihydrophthalazin-1-yl)phenyl)-1H-indazole-3-carboxamide] has an IC50 (ROCK1) of 1 to 50 µM and an IC50 (ROCK2) of 0.0001 to 0.1 µM.
With O=C(Nc1ccc(-c2n[nH]c(=O)c3ccccc23)cc1)C1CC(=O)N(c2cccc(Cl)c2F)C1 (stereo not drawn) [Example 211, 1-(3-chloro-2-fluorophenyl)-5-oxo-N-[4-(4-oxo-3,4-dihydrophthalazin-1-yl)phenyl]pyrrolidine-3-carboxamide] the IC50 (ROCK1) was 1 to 50 µM and the IC50 (ROCK2) was 0.101 to 1 µM.
For O=C(Cc1ccc(-c2n[nH]c(=O)c3ccccc23)cc1)N1CCc2ccc(O[C@@H]3CCOC3)cc21 [Example 274, 4-[4-(2-oxo-2-{6-[(3R)-oxolan-3-yloxy]-2,3-dihydro-1H-indol-1-yl}ethyl)phenyl]-1,2-dihydrophthalazin-1-one], the IC50 (ROCK1) was 0.0001 to 0.1 µM and the IC50 (ROCK2) was 0.0001 to 0.1 µM.
In the case of O=C(O)COc1ccc2c(c1)N(C(=O)Cc1ccc(-c3n[nH]c(=O)c4ccccc34)cc1)CC2 [Example 290, 2-((1-(2-(4-(4-Oxo-3,4-dihydrophthalazin-1-yl)phenyl)acetyl)indolin-6-yl)oxy)acetic Acid], the IC50 (ROCK1) is reported as 0.0001 to 0.1 µM and the IC50 (ROCK2) is reported as 0.0001 to 0.1 µM.
Work on CN1CC(Cn2nc(C(=O)Nc3ccc(-c4n[nH]c(=O)c5ccccc45)cc3)c3ccccc32)C1 [Example 340, 1-((1-Methylazetidin-3-yl)methyl)-N-(4-(4-oxo-3,4-dihydrophthalazin-1-yl)phenyl)-1H-indazole-3-carboxamide] yielded an IC50 (ROCK1) of 0.0001 to 0.1 µM and an IC50 (ROCK2) of 0.0001 to 0.1 µM.
O=C(Nc1ccc(-c2n[nH]c(=O)c3ccccc23)cc1)c1cnc2ccccn12 [Example 104, N-[4-(4-oxo-3,4-dihydrophthalazin-1-yl)phenyl]imidazo[1,2-a]pyridine-3-carboxamide] gave an IC50 (ROCK1) of 0.0001 to 0.1 µM and an IC50 (ROCK2) of 0.0001 to 0.1 µM.
For Cn1cc(C(=O)Nc2ccc(-c3n[nH]c(=O)c4ccccc34)cc2)cn1 [Example 212, 1-methyl-N-[4-(4-oxo-3,4-dihydrophthalazin-1-yl)phenyl]-1H-pyrazole-4-carboxamide], the IC50 (ROCK1) was 0.101 to 1 µM and the IC50 (ROCK2) was 0.0001 to 0.1 µM.
Cc1cc(C(=O)Nc2ccc(-c3n[nH]c(=O)c4ccccc34)cc2)nn1C [Example 205, 1,5-dimethyl-N-[4-(4-oxo-3,4-dihydrophthalazin-1-yl)phenyl]-1H-pyrazole-3-carboxamide] showed an IC50 (ROCK1) of 0.101 to 1 µM and an IC50 (ROCK2) of 0.0001 to 0.1 µM.
With COc1ccc2c(-c3ccc(NC(=O)c4cn5ccccc5n4)cc3)n[nH]c(=O)c2c1 [Example 370, N-(4-(6-Methoxy-4-oxo-3,4-dihydrophthalazin-1-yl)phenyl)imidazo[1,2-a]pyridine-2-carboxamide] the IC50 (ROCK1) was 1 to 50 µM and the IC50 (ROCK2) was 0.0001 to 0.1 µM.
Compound O=C(Nc1ccc(-c2n[nH]c(=O)c3ccccc23)cc1)c1ccc(-n2cncn2)cc1 [Example 92, N-[4-(4-oxo-3,4-dihydrophthalazin-1-yl)phenyl]-4-(1H-1,2,4-triazol-1-yl)benzamide] has an IC50 (ROCK1) of 0.101 to 1 µM and an IC50 (ROCK2) of 0.0001 to 0.1 µM.
With Cc1cc(NC(=O)c2cnn(-c3ccccc3)c2C)ccc1-c1n[nH]c(=O)c2ccccc12 [Example 394, 5-Methyl-N-(3-methyl-4-(4-oxo-3,4-dihydrophthalazin-1-yl)phenyl)-1-phenyl-1H-pyrazole-4-carboxamide] the IC50 (ROCK1) was 0.101 to 1 µM and the IC50 (ROCK2) was 0.0001 to 0.1 µM.
With COc1cc(-c2n[nH]c(=O)c3ccccc23)ccc1NC(=O)c1nn(CC(C)(C)O)c2ccccc12 [Example 357, 1-(2-Hydroxy-2-methylpropyl)-N-(2-methoxy-4-(4-oxo-3,4-dihydrophthalazin-1-yl)phenyl)-1H-indazole-3-carboxamide] the IC50 (ROCK1) was 1 to 50 µM and the IC50 (ROCK2) was 0.101 to 1 µM.
With O=c1[nH]nc(-c2ccc(Nc3nc4ccccc4o3)cc2)c2ccccc12 [Example 75, 4-(4-(Benzo[d]oxazol-2-ylamino)phenyl)phthalazin-1(2H)-one] the IC50 (ROCK1) was 0.0001 to 0.1 µM and the IC50 (ROCK2) was 0.0001 to 0.1 µM.
O=C(Nc1ccc(-c2n[nH]c(=O)c3ccccc23)cc1)c1cnn(-c2ccccc2)c1Cl [Example 199, 5-chloro-N-[4-(4-oxo-3,4-dihydrophthalazin-1-yl)phenyl]-1-phenyl-1H-pyrazole-4-carboxamide] showed an IC50 (ROCK1) of 0.0001 to 0.1 µM and an IC50 (ROCK2) of 0.0001 to 0.1 µM.
Work on COc1cccc2cc(C(=O)Nc3ccc(-c4n[nH]c(=O)c5ccccc45)c(C)c3)[nH]c12 [Example 309, 7-methoxy-N-[3-methyl-4-(4-oxo-3,4-dihydrophthalazin-1-yl)phenyl]-1H-indole-2-carboxamide] yielded an IC50 (ROCK1) of 0.0001 to 0.1 µM and an IC50 (ROCK2) of 0.0001 to 0.1 µM.
For CC(C)(O)COc1ccc2c(c1)N(C(=O)Cc1ccc(-c3n[nH]c(=O)c4ccccc34)cc1)CC2 [Example 265, 4-(4-(2-(6-(2-Hydroxy-2-methylpropoxy)indolin-1-yl)-2-oxoethyl)phenyl)phthalazin-1(2H)-one], the IC50 (ROCK1) was 0.0001 to 0.1 µM and the IC50 (ROCK2) was 0.0001 to 0.1 µM.
Compound CC1(C)CN(C(=O)Cc2ccc(-c3n[nH]c(=O)c4ccccc34)cc2)c2ccccc21 [Example 39, 4-{4-[2-(3,3-dimethyl-2,3-dihydro-1H-indol-1-yl)-2-oxoethyl]phenyl}-1,2-dihydrophthalazin-1-one] has an IC50 (ROCK1) of 0.101 to 1 µM and an IC50 (ROCK2) of 0.0001 to 0.1 µM.
For CC(C)(O)COc1ccn2ncc(C(=O)Nc3ccc(-c4n[nH]c(=O)c5ccccc45)cc3)c2c1 [Example 181, 5-(2-hydroxy-2-methylpropoxy)-N-[4-(4-oxo-3,4-dihydrophthalazin-1-yl)phenyl]pyrazolo[1,5-a]pyridine-3-carboxamide], the IC50 (ROCK1) was 0.101 to 1 µM and the IC50 (ROCK2) was 0.0001 to 0.1 µM.
O=C(Nc1ccc(-c2n[nH]c(=O)c3ccccc23)cc1)c1nn(CC2CCOC2)c2ccc(F)cc12 (stereo not drawn) [Example 173, 5-fluoro-N-[4-(4-oxo-3,4-dihydrophthalazin-1-yl)phenyl]-1-(oxolan-3-ylmethyl)-1H-indazole-3-carboxamide] gave an IC50 (ROCK1) of 0.0001 to 0.1 µM and an IC50 (ROCK2) of 0.0001 to 0.1 µM.
O=C(Nc1ccc(-c2n[nH]c(=O)c3ccccc23)cc1)c1cn2ccncc2n1 [Example 133, N-[4-(4-oxo-3,4-dihydrophthalazin-1-yl)phenyl]imidazo[1,2-a]pyrazine-2-carboxamide] gave an IC50 (ROCK1) of 0.101 to 1 µM and an IC50 (ROCK2) of 0.0001 to 0.1 µM.
O=C(Nc1ccc(-c2c[nH]c(=O)c3ccccc23)cc1)N1CCc2ccccc21 [Example 77, N-(4-(1-Oxo-1,2-dihydroisoquinolin-4-yl)phenyl)indoline-1-carboxamide] showed an IC50 (ROCK1) of 0.0001 to 0.1 µM and an IC50 (ROCK2) of 0.0001 to 0.1 µM.
With CC(C)c1c(C(=O)Nc2ccc(-c3n[nH]c(=O)c4ccccc34)cc2)nnn1-c1ccccc1 [Example 221, N-[4-(4-oxo-3,4-dihydrophthalazin-1-yl)phenyl]-1-phenyl-5-(propan-2-yl)-1H-1,2,3-triazole-4-carboxamide] the IC50 (ROCK1) was 0.101 to 1 µM and the IC50 (ROCK2) was 0.101 to 1 µM.
Cn1nc(C(=O)Nc2ccc(-c3n[nH]c(=O)c4ccccc34)cc2)cc1C(C)(C)C [Example 206, 5-tert-butyl-1-methyl-N-[4-(4-oxo-3,4-dihydrophthalazin-1-yl)phenyl]-1H-pyrazole-3-carboxamide] showed an IC50 (ROCK1) of 0.0001 to 0.1 µM and an IC50 (ROCK2) of 0.0001 to 0.1 µM.
O=C(Nc1ccc(-c2n[nH]c(=O)c3ccccc23)cc1)c1cnn(-c2cccc(Cl)c2)c1 [Example 198, 1-(3-chlorophenyl)-N-[4-(4-oxo-3,4-dihydrophthalazin-1-yl)phenyl]-1H-pyrazole-4-carboxamide] was tested, and the IC50 (ROCK1) was 0.0001 to 0.1 µM and the IC50 (ROCK2) was 0.0001 to 0.1 µM.
In the case of O=C(Nc1ccc(-c2n[nH]c(=O)c3ccccc23)cc1)c1nn(Cc2ccncc2)c2ccccc12 [Example 165, N-[4-(4-oxo-3,4-dihydrophthalazin-1-yl)phenyl]-1-(pyridin-4-ylmethyl)-1H-indazole-3-carboxamide], the IC50 (ROCK1) is reported as 0.0001 to 0.1 µM and the IC50 (ROCK2) is reported as 0.0001 to 0.1 µM.
O=C(Nc1ccc(-c2n[nH]c(=O)c3ccccc23)cc1)c1nn(CC2CCCCO2)c2ccccc12 (stereo not drawn) [Example 168, 1-(oxan-2-ylmethyl)-N-[4-(4-oxo-3,4-dihydrophthalazin-1-yl)phenyl]-1H-indazole-3-carboxamide] showed an IC50 (ROCK1) of 0.0001 to 0.1 µM and an IC50 (ROCK2) of 0.0001 to 0.1 µM.
Compound O=C(Nc1ccc(-c2n[nH]c(=O)c3ccccc23)cc1)c1cnn(CCC(F)(F)F)c1 [Example 398, N-(4-(4-Oxo-3,4-dihydrophthalazin-1-yl)phenyl)-1-(3,3,3-trifluoropropyl)-1H-pyrazole-4-carboxamide] has an IC50 (ROCK1) of 0.101 to 1 µM and an IC50 (ROCK2) of 0.0001 to 0.1 µM.
